Measured values: US9993494B2, “Compositions and methods for treating fibrotic disease” (eFFECTOR Therapeutics, Inc., priority 2014, dated 2018)

System: normal human lung fibroblasts
Test: Ribosomal profiling: translational efficiency in TGFβ-treated fibroblasts
Type: cell-based
Conditions: TGFβ-treated fibroblasts
Method in brief: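 Genome-wide RPF and total RNA libraries (ARTseq, RNA-Seq) were made from lysates of cycloheximide-treated, PBS-washed cells. After trimming and human-genome mapping, per-gene coding-region counts were compared between RPF and RNA for translational efficiency. Genes scoring low in either fraction were dropped.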

## CC(C=CC(=O)NO)=CC(C)C(=O)c1ccc(N(C)C)cc1 (stereo not drawn) [TSA, 7-[4-(dimethylamino)phenyl]-N-hydroxy-4,6-dimethyl-7-oxohepta-2,4-dienamide]
ENSG00000125967
  renormalizing the translational profile of NECAB3: − (− = <0.9)
ENSG00000127184
  renormalizing the translational profile of COX7C: − (− = <0.9)
ENSG00000128342
  renormalizing the translational profile of LIF: − (− = <0.9)
ENSG00000129422
  renormalizing the translational profile of MTUS1: − (− = <0.9)
ENSG00000129675
  renormalizing the translational profile of ARHGEF6: − (− = <0.9)
ENSG00000130255
  renormalizing the translational profile of RPL36: − (− = <0.9)
ENSG00000130513
  renormalizing the translational profile of GDF15: − (− = <0.9)
ENSG00000130707
  renormalizing the translational profile of ASS1: − (− = <0.9)
ENSG00000130741
  renormalizing the translational profile of EIF2S3: − (− = <0.9)
ENSG00000131469
  renormalizing the translational profile of RPL27: − (− = <0.9)
ENSG00000132031
  renormalizing the translational profile of MATN3: − (− = <0.9)
ENSG00000132170
  renormalizing the translational profile of PPARG: + (+ = 0.9 to 1.5)
ENSG00000132510
  renormalizing the translational profile of KDM6B: − (− = <0.9)
ENSG00000133321
  renormalizing the translational profile of RARRES3: − (− = <0.9)
ENSG00000134897
  renormalizing the translational profile of BIVM: − (− = <0.9)
ENSG00000135390
  renormalizing the translational profile of ATP5G2: − (− = <0.9)
ENSG00000135480
  renormalizing the translational profile of KRT7: − (− = <0.9)
ENSG00000135486
  renormalizing the translational profile of HNRNPA1: − (− = <0.9)
ENSG00000136244
  renormalizing the translational profile of IL6: − (− = <0.9)
ENSG00000136942
  renormalizing the translational profile of RPL35: − (− = <0.9)
ENSG00000136999
  renormalizing the translational profile of NOV: + (+ = 0.9 to 1.5)
ENSG00000137331
  renormalizing the translational profile of IER3: − (− = <0.9)
ENSG00000137628
  renormalizing the translational profile of DDX60: − (− = <0.9)
ENSG00000137818
  renormalizing the translational profile of RPLP1: − (− = <0.9)
ENSG00000137819
  renormalizing the translational profile of PAQR5: − (− = <0.9)
ENSG00000138356
  renormalizing the translational profile of AOX1: ++ (++ = 1.5 to 2.0)
ENSG00000138675
  renormalizing the translational profile of FGF5: − (− = <0.9)
ENSG00000138735
  renormalizing the translational profile of PDE5A: − (− = <0.9)
ENSG00000139354
  renormalizing the translational profile of GAS2L3: + (+ = 0.9 to 1.5)
ENSG00000139734
  renormalizing the translational profile of DIAPH3: − (− = <0.9)
ENSG00000141140
  renormalizing the translational profile of MYO19: − (− = <0.9)
ENSG00000142541
  renormalizing the translational profile of RPL13A: − (− = <0.9)
ENSG00000142676
  renormalizing the translational profile of RPL11: − (− = <0.9)
ENSG00000143632
  renormalizing the translational profile of ACTA1: − (− = <0.9)
ENSG00000143850
  renormalizing the translational profile of PLEKHA6: + (+ = 0.9 to 1.5)
ENSG00000144713
  renormalizing the translational profile of RPL32: − (− = <0.9)
ENSG00000145592
  renormalizing the translational profile of RPL37: − (− = <0.9)
ENSG00000145741
  renormalizing the translational profile of BTF3: − (− = <0.9)
ENSG00000146066
  renormalizing the translational profile of HIGD2A: − (− = <0.9)
ENSG00000146592
  renormalizing the translational profile of CREB5: − (− = <0.9)
ENSG00000146966
  renormalizing the translational profile of DENND2A: − (− = <0.9)
ENSG00000147403
  renormalizing the translational profile of RPL10: + (+ = 0.9 to 1.5)
ENSG00000147677
  renormalizing the translational profile of EIF3H: − (− = <0.9)
ENSG00000148303
  renormalizing the translational profile of RPL7A: − (− = <0.9)
ENSG00000149100
  renormalizing the translational profile of EIF3M: − (− = <0.9)
ENSG00000149806
  renormalizing the translational profile of FAU: − (− = <0.9)
ENSG00000150636
  renormalizing the translational profile of CCDC102B: + (+ = 0.9 to 1.5)
ENSG00000151474
  renormalizing the translational profile of FRMD4A: + (+ = 0.9 to 1.5)
ENSG00000152413
  renormalizing the translational profile of HOMER1: − (− = <0.9)
ENSG00000152527
  renormalizing the translational profile of PLEKHH2: − (− = <0.9)
ENSG00000154122
  renormalizing the translational profile of ANKH: − (− = <0.9)
ENSG00000154262
  renormalizing the translational profile of ABCA6: − (− = <0.9)
ENSG00000154358
  renormalizing the translational profile of OBSCN: +++ (+++ = >2.0)
ENSG00000154736
  renormalizing the translational profile of ADAMTS5: − (− = <0.9)
ENSG00000155463
  renormalizing the translational profile of OXA1L: − (− = <0.9)
ENSG00000155621
  renormalizing the translational profile of C9orf85: − (− = <0.9)
ENSG00000156482
  renormalizing the translational profile of RPL30: − (− = <0.9)
ENSG00000156508
  renormalizing the translational profile of EEF1A1: + (+ = 0.9 to 1.5)
ENSG00000157168
  renormalizing the translational profile of NRG1: − (− = <0.9)
ENSG00000158859
  renormalizing the translational profile of ADAMTS4: − (− = <0.9)
ENSG00000161016
  renormalizing the translational profile of RPL8: − (− = <0.9)
ENSG00000161970
  renormalizing the translational profile of RPL26: − (− = <0.9)
ENSG00000162244
  renormalizing the translational profile of RPL29: − (− = <0.9)
ENSG00000162545
  renormalizing the translational profile of CAMK2N1: − (− = <0.9)
ENSG00000163453
  renormalizing the translational profile of IGFBP7: − (− = <0.9)
ENSG00000163584
  renormalizing the translational profile of RPL22L1: − (− = <0.9)
